Where “and” joins values, the source holds several entries; their conditions need not be identical. Equal entries are not always repeated. Toxic doses and inconclusive results are not listed. How the source made its calls: active means survival T/C of 150% or more; inactive means T/C below 125% in these data. Residues, ends and D or L forms follow the SMILES beside them. *: point of attachment. For = O=C*
Tested on: BDF1 mice, P388 leukemia ip, median survival T/C
Experiment: NCI In Vivo Anticancer Drug Screen. Data for tumor model P388 Leukemia (intraperitoneal) in B6D2F1 (BDF1) mice
Conditions: endpoint: median survival time, higher = longer survival
Procedure, shortened: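 Vehicle-dosed animals serve as the reference; survival of compound-dosed, tumour-implanted mice is divided by it.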

[1] = dose: 25.0 mg/kg/injection, schedule: Q01DX009 (ip), vehicle: saline
[2] = dose: 50.0 mg/kg/injection, schedule: Q01DX009 (ip), vehicle: saline
[3] = dose: 100.0 mg/kg/injection, schedule: Q01DX009 (ip), vehicle: saline
[4] = dose: 100.0 mg/kg/injection, schedule: Q04DX003 (ip), vehicle: saline with Tween-80
[5] = dose: 200.0 mg/kg/injection, schedule: Q04DX003 (ip), vehicle: saline with Tween-80
[6] = dose: 400.0 mg/kg/injection, schedule: Q04DX003 (ip), vehicle: saline with Tween-80
[7] = dose: 50.0 mg/kg/injection, schedule: Q04DX003 (ip), vehicle: saline with Tween-80
[8] = dose: 0.78 mg/kg/injection, schedule: Q01DX009 (ip), vehicle: saline
[9] = dose: 1.56 mg/kg/injection, schedule: Q01DX009 (ip), vehicle: saline
[10] = dose: 1.56 mg/kg/injection, schedule: Q04DX003 (ip), vehicle: saline
[11] = dose: 3.12 mg/kg/injection, schedule: Q01DX009 (ip), vehicle: saline
[12] = dose: 3.12 mg/kg/injection, schedule: Q04DX003 (ip), vehicle: saline
[13] = dose: 6.25 mg/kg/injection, schedule: Q01DX009 (ip), vehicle: saline
[14] = dose: 12.5 mg/kg/injection, schedule: Q01DX009 (ip), vehicle: saline with Tween-80
[15] = dose: 25.0 mg/kg/injection, schedule: Q01DX009 (ip), vehicle: saline with Tween-80
[16] = dose: 100.0 mg/kg/injection, schedule: Q01DX009 (ip), vehicle: saline with Tween-80
[17] = dose: 200.0 mg/kg/injection, schedule: Q01DX009 (ip), vehicle: saline with Tween-80

Measured: T/C

NS(=O)(=O)c1ccc(Cl)cc1
inactive: [1] 113 % of control | [2] 109 % of control | dose: 75.0 mg/kg/injection, schedule: Q04DX003 (ip), vehicle: saline 100 % of control | [3] 86 % of control | dose: 150.0 mg/kg/injection, schedule: Q04DX003 (ip), vehicle: saline 109 % of control | dose: 300.0 mg/kg/injection, schedule: Q04DX003 (ip), vehicle: saline 109 % of control

CC(=O)OC1CCC2(C)C3CCC4(C)C(O)CCC4C3CC(O)C2(O)C1 (stereo not drawn)
inactive: [2] 103 % of control | [3] 88 % of control | dose: 200.0 mg/kg/injection, schedule: Q01DX009 (ip), vehicle: saline 107 % of control

Cc1ccc(NS(=O)(=O)c2ccccc2)cc1
inactive: [4] 100 % of control | [5] 100 % of control | [6] 110 % of control

c1ccc(CN2CCCCC2)nc1
inactive: dose: 5.0 mg/kg/injection, schedule: Q01DX009 (ip), vehicle: Klucel (hydroxypropylcellulose) (HPC) 105 % of control | dose: 5.0 mg/kg/injection, schedule: Q04DX003 (ip), vehicle: Klucel (hydroxypropylcellulose) (HPC) 104 % of control | dose: 10.0 mg/kg/injection, schedule: Q01DX009 (ip), vehicle: Klucel (hydroxypropylcellulose) (HPC) 100 % of control | dose: 10.0 mg/kg/injection, schedule: Q04DX003 (ip), vehicle: Klucel (hydroxypropylcellulose) (HPC) 100 % of control | dose: 20.0 mg/kg/injection, schedule: Q01DX009 (ip), vehicle: Klucel (hydroxypropylcellulose) (HPC) 105 % of control | dose: 20.0 mg/kg/injection, schedule: Q04DX003 (ip), vehicle: Klucel (hydroxypropylcellulose) (HPC) 100 % of control

OCn1cnc2c(SC3CCCC3)ncnc21
inactive: dose: 75.0 mg/kg/injection, schedule: Q01DX009 (ip), vehicle: Klucel (hydroxypropylcellulose) (HPC) 120 % of control

CC(C)=NNC(=O)c1ccccc1
inactive: [1] 104 % of control | dose: 25.0 mg/kg/injection, schedule: Q04DX003 (ip), vehicle: saline with Tween-80 95 % of control | [2] 109 % of control | [7] 95 % of control | [4] 100 % of control and 113 % of control

CC1CN1CC(O)C(O)CN1CC1C (stereo not drawn)
active: [8] 165 % of control | dose: 0.78 mg/kg/injection, schedule: Q04DX003 (ip), vehicle: saline 200 % of control | dose: 0.8 mg/kg/injection, schedule: Q01DX009 (ip), vehicle: saline with Tween-80 225 % of control | dose: 1.2 mg/kg/injection, schedule: Q01DX009 (ip), vehicle: saline with Tween-80 241 % of control | dose: 1.3 mg/kg/injection, schedule: Q04DX003 (ip), vehicle: saline 170 % of control | [9] 203 % of control | [10] 229 % of control and 181 % of control | dose: 1.8 mg/kg/injection, schedule: Q01DX009 (ip), vehicle: saline with Tween-80 250 % of control | dose: 2.0 mg/kg/injection, schedule: Q01DX009 (ip), vehicle: saline 250 % of control | dose: 3.0 mg/kg/injection, schedule: Q01DX009 (ip), vehicle: saline 250 % of control | [11] 203 % of control | [12] 222 % of control | dose: 3.3 mg/kg/injection, schedule: Q04DX003 (ip), vehicle: saline 236 % of control | dose: 4.5 mg/kg/injection, schedule: Q04DX003 (ip), vehicle: saline 200 % of control | dose: 5.0 mg/kg/injection, schedule: Q04DX003 (ip), vehicle: saline 295 % of control | dose: 6.25 mg/kg/injection, schedule: Q04DX003 (ip), vehicle: saline 231 % of control | dose: 6.6 mg/kg/injection, schedule: Q04DX003 (ip), vehicle: saline 259 % of control
inactive: dose: 0.09 mg/kg/injection, schedule: Q04DX003 (ip), vehicle: saline 100 % of control | dose: 0.19 mg/kg/injection, schedule: Q04DX003 (ip), vehicle: saline 103 % of control | [13] 95 % of control | dose: 10.0 mg/kg/injection, schedule: Q04DX003 (ip), vehicle: saline 86 % of control

O=C(NCCCl)OCC(F)(F)F
inactive: dose: 50.0 mg/kg/injection, schedule: Q01DX005 (ip), vehicle: Klucel (hydroxypropylcellulose) (HPC) 113 % of control | dose: 100.0 mg/kg/injection, schedule: Q01DX005 (ip), vehicle: Klucel (hydroxypropylcellulose) (HPC) 97 % of control | dose: 200.0 mg/kg/injection, schedule: Q01DX005 (ip), vehicle: Klucel (hydroxypropylcellulose) (HPC) 108 % of control

CCO/C(N)=N/OS(=O)(=O)c1ccccc1
inactive: [4] 99 % of control | [5] 96 % of control | [6] 98 % of control

Cc1ccc(C)c(C(=O)CCC(=O)O)c1
inactive: [14] 108 % of control | [15] 110 % of control | [16] 91 % of control | [17] 99 % of control | [5] 91 % of control | [6] 100 % of control

CSc1ccc(OC(=O)Nc2ccccc2F)cc1
inactive: [7] 90 % of control | [4] 100 % of control | [5] 109 % of control

COC(=O)C(CC(C)C)NC(=O)C(Cc1ccc(O)cc1)NC=O (stereo not drawn) (For-Tyr-Leu-OMe; configuration not given here)
inactive: [16] 99 % of control | [4] 105 % of control | [17] 115 % of control | [5] 110 % of control | dose: 400.0 mg/kg/injection, schedule: Q01DX009 (ip), vehicle: saline with Tween-80 106 % of control | [6] 112 % of control

Cc1ccc(CNc2ccc([N+](=O)[O-])cc2)cc1
inactive: dose: 50.0 mg/kg/injection, schedule: Q01DX009 (ip), vehicle: saline with Tween-80 104 % of control | [16] 90 % of control | [17] 104 % of control

CC(=O)OC12COC1CC(O)C1(C)C(=O)C(O)C3=C(C)C(O)CC(O)(C(OC(=O)c4ccccc4)C21)C3(C)C (stereo not drawn)
inactive: dose: 2.0 mg/kg/injection, schedule: Q01DX009 (ip), vehicle: alcohol 100 % of control | dose: 4.0 mg/kg/injection, schedule: Q01DX009 (ip), vehicle: alcohol 95 % of control | dose: 8.0 mg/kg/injection, schedule: Q01DX009 (ip), vehicle: alcohol 100 % of control | dose: 16.0 mg/kg/injection, schedule: Q01DX009 (ip), vehicle: alcohol 95 % of control

C=C(Cl)COC1CCS(=O)(=O)C1 (stereo not drawn)
inactive: dose: 6.25 mg/kg/injection, schedule: Q01DX009 (ip), vehicle: saline with Tween-80 90 % of control | [14] 90 % of control | [15] 93 % of control

O=C([CH-]C(=O)C(F)(F)F)c1ccccc1.O=C([CH-]C(=O)C(F)(F)F)c1ccccc1.O=C([CH-]C(=O)C(F)(F)F)c1ccccc1.O=C([CH-]C(=O)C(F)(F)F)c1ccccc1.[Eu+3].c1ccncc1
inactive: dose: 100.0 mg/kg/injection, schedule: Q01DX009 (ip), vehicle: Klucel (hydroxypropylcellulose) (HPC) 113 % of control

CCCCCCCCCCCCOc1ccc(C=O)cc1OC
inactive: dose: 100.0 mg/kg/injection, schedule: Q01DX001 (ip), vehicle: Klucel (hydroxypropylcellulose) (HPC) 100 % of control | dose: 200.0 mg/kg/injection, schedule: Q01DX001 (ip), vehicle: Klucel (hydroxypropylcellulose) (HPC) 90 % of control | dose: 400.0 mg/kg/injection, schedule: Q01DX001 (ip), vehicle: Klucel (hydroxypropylcellulose) (HPC) 100 % of control

CN(C)c1ccc(C(=C2C=CC(=[N+](C)C)C=C2)c2ccc(N(C)C)cc2)cc1
inactive: [8] 107 % of control | [9] 121 % of control | [10] 122 % of control | [12] 86 % of control

CC(C)C([NH-])=O.CC(C)C([NH-])=O.[Cl][Pt+2][Cl]
inactive: [11] 93 % of control | [13] 101 % of control and 118 % of control | dose: 12.5 mg/kg/injection, schedule: Q01DX009 (ip), vehicle: saline 87 % of control and 117 % of control | [1] 87 % of control and 112 % of control and 123 % of control | dose: 25.0 mg/kg/injection, schedule: Q04DX003 (ip), vehicle: saline 118 % of control | [2] 95 % of control | dose: 50.0 mg/kg/injection, schedule: Q04DX003 (ip), vehicle: saline 116 % of control | [3] 93 % of control and 112 % of control | dose: 100.0 mg/kg/injection, schedule: Q04DX003 (ip), vehicle: saline 114 % of control
